Experimental data as given in PubChem BioAssay AID624003 (Vanderbilt Specialized Chemistry Center, 2012).

Target: Phospholipase D1 (Homo sapiens) + Phospholipase D1 (Homo sapiens) (UniProt Q13393+Q13393)
Assay: cellular phospholipase D1 inhibitors, IC50 – cell-based, Lib32, assay 2A, dose response (AID 624003)
Conditions: cellular PLD1 activity assay

Phospholipase D1 (Homo sapiens) + Phospholipase D1 (Homo sapiens), sequence (Q13393 whole entry, looked up): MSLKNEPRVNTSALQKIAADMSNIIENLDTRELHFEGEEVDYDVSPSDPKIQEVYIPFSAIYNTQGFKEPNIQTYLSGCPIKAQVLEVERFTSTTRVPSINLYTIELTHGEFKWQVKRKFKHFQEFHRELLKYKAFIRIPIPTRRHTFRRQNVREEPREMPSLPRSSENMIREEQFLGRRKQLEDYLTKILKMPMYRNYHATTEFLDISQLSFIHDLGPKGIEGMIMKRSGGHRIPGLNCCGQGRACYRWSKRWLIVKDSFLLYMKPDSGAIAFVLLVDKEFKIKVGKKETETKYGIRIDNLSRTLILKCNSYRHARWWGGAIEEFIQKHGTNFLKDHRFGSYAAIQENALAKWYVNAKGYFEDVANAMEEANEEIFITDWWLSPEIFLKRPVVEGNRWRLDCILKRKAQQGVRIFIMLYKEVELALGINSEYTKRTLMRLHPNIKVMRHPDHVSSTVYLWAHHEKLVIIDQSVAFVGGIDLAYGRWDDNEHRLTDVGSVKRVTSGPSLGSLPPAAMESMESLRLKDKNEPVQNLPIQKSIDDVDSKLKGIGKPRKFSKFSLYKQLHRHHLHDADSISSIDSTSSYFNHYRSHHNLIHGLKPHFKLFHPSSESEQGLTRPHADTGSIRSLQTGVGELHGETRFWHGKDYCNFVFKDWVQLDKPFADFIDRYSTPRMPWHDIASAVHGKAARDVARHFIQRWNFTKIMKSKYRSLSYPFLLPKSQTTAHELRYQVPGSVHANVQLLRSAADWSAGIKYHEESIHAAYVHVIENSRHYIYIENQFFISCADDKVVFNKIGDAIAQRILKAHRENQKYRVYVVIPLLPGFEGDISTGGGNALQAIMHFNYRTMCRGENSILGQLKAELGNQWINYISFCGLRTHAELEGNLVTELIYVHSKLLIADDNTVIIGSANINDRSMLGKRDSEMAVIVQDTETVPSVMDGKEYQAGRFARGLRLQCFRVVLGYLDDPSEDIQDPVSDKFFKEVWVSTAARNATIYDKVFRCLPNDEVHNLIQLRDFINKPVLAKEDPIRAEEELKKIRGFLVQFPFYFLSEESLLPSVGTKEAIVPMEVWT
Phospholipase D1 (Homo sapiens) + Phospholipase D1 (Homo sapiens), sequence (Q13393 whole entry, looked up): as above

**Q.** With `COc1cc(C(=O)NCCN2CCC3(CC2)C(=O)NCN3c2cccc(F)c2)cc(OC)c1OC` as the compound, how does the IC50 read?
**A.** The IC50 was 4.32 µM.

**Q.** Which IC50 does the source give for `C[C@@H](CN1CCC2(CC1)C(=O)NCN2c1cccc(F)c1)NC(=O)c1ccc(F)c(F)c1` here?
**A.** Its IC50 is 0.086 µM.

**Q.** `C[C@@H](CN1CCC2(CC1)C(=O)NCN2c1cccc(F)c1)NC(=O)c1ccc(F)cc1F` was tested. Which IC50 did it give?
**A.** Its IC50 is 0.136 µM.

**Q.** `C[C@@H](CN1CCC2(CC1)C(=O)NCN2c1cccc(F)c1)NC(=O)c1ccc(F)cc1` was tested. Which IC50 did it give?
**A.** Its IC50 is 0.02 µM.

**Q.** Which IC50 does the source give for `C[C@@H](CN1CCC2(CC1)C(=O)NCN2c1cccc(F)c1)NC(=O)c1cccc([N+](=O)[O-])c1` here?
**A.** Its IC50 is 0.122 µM.

**Q.** With `C[C@@H](CN1CCC2(CC1)C(=O)NCN2c1cccc(F)c1)NC(=O)c1cccc(F)c1` as the compound, how does the IC50 read?
**A.** Its IC50 is 0.073 µM.

**Q.** For `O=C(NCCN1CCC2(CC1)C(=O)NCN2c1cccc(F)c1)c1ccc(Br)cc1`, which IC50 is on record?
**A.** Its IC50 is 1.54 µM.

**Q.** Which IC50 does the source give for `COc1cc(C(=O)N[C@@H](C)CN2CCC3(CC2)C(=O)NCN3c2cccc(F)c2)cc(OC)c1OC` here?
**A.** The IC50 was 0.022 µM.
